From US7741245B2, “Method for treating plants or plant parts” (Rohm and Haas Company, priority 2004, dated 2010)

Tested on: Patio variety tomato seedlings
Assay: Tomato Epinasty Test
Assay type: in vivo
Conditions: 1000 ppm v/v OCPO in air of sealed chamber; ethylene 10 ppm v/v injected four hours later; scored sixteen hours later
Description: The biological activity of OCPO was assessed with the Tomato Epinasty Test. Epinasty is downward bending of leaves. The test was performed as follows. Test plants are Patio variety tomato seedlings planted two plants per three inch square plastic pot. Volatile gas treatment entailed placing two pots of Patio variety tomatoes into a polystyrene 4.8 L volume treatment chamber along with one-half (upper or lower section) of a 50×9 mm plastic Petri dish containing a Gelman filter pad. OCPO, dissolved in 1.0 ml acetone, was pipetted onto the filter pad and the chamber was immediately sealed. The amount of OCPO was calculated to give concentration of 1000 ppm v/v of OCPO in the air of the sealed chamber. Four hours later ethylene gas was injected into the sealed chamber in an amount to give concentration of ethylene of 10 ppm v/v final concentration in the sealed chamber. Sixteen hours later the chambers were opened in an exhaust hood, allowed to air, and the plants scored visually for the degree of protection against ethylene-induced epinasty conferred by the experimental compound when compared to untreated controls on a scale of 0 to 10. A rating of 10 means complete protection. A rating of 0 means no protection from the effects of ethylene.

For CCCCCCCCc1cc1=O [OCPO, 1-octylcycloprop-1-en-2-one], the “protection against ethylene-induced epinasty, visual rating on a scale of 0 to 10 (10 = complete protection, 0 = no protection)” value was 7.
